experiment: Human HepG2 cell viability assay in 384 well format; assay type: toxicity, cell-based; parameters: dose 125 nL, time 70.5 hour; cytotoxicity at 70.5 h: concentration not given beside the values; conditions: HepG2 cells, read-out: Inhibition

In order of falling cytotoxicity at 70.5 h:
1. Cc1oc(-c2ccco2)nc1CN1CCCC(Cn2cncn2)C1 (stereo unspecified)  39.6%
2. CCO[C@@H]1CC[C@H]2[C@H]1OCCN2CC1CCOCC1  38.8%
3. CC1Oc2c(cccc2C(=O)N2CCCCCC2)NC1=O (stereo unspecified)  29.3%
4. CN(C)Cc1csc(-c2nccn2Cc2ccc(C(=O)O)cc2)c1  19.3%
5. N#Cc1cc(F)c(NCc2ccc(F)cc2)c(F)c1  15.5%
6. CCOc1ccc(Cl)c(C(=O)NC(C(N)=O)c2ccccc2)n1 (stereo unspecified)  14.2%
7. CCCc1n[nH]c(C2CN(CCNC3CCCCC3)CCO2)n1 (stereo unspecified)  9.34%
8. c1cnnc(N[C@@H]2CC[C@@H]3CN(Cc4ccc5[nH]ccc5c4)C[C@@H]32)c1  2.98%
9. O=C(Cc1cccc(F)c1)N1CCc2ncnc(NC3CCC3)c2CC1  2.52%
10. Cc1ccccc1CCCN1C(=O)CC2(CCSC2)C1=O (stereo unspecified)  2.27%
11. CCN1CCN(C2CCN(Cc3nc(-c4ccoc4)no3)CC2)C1=O  1.49%
12. Clc1cccc(OCCCN2CCOC(Cn3cncn3)C2)c1 (stereo unspecified)  1.4%
13. Cc1ccc(CN2CC[C@H]3C[C@H](C(=O)N4CCCO4)O[C@@H]3C2)o1  1.31%
14. CCC1=N[C@@]2(CC[C@@H]3CN(C(=O)Nc4ccc(F)cc4)C[C@@H]32)C(=O)N1  0.571%
15. CS(=O)(=O)c1ccc(OCCNCc2cccc(O)c2)cc1  -0.254%
16. COCc1cc(C[C@@H]2CC[C@H](O)[C@@H](CN(CC(C)C)CC(C)C)O2)no1  -0.301%
17. CCn1ncc(C(=O)NCCc2nc(-c3ccc(C)cc3)n[nH]2)c1C  -0.645%
18. N#Cc1ccc(NCCCN2C(=O)COc3ccccc32)nc1  -1.32%
19. CCn1ncc(CN2CCC(O)(Cn3ccc4ncccc43)CC2)c1C  -1.63%
20. Cc1nn(C)c(C)c1CC(=O)N1CCCC(n2ccnc2C)C1 (stereo unspecified)  -2.12%
21. Cc1nc(C(NC(=O)CC(F)(F)F)c2ccc(Cl)cc2)no1 (stereo unspecified)  -2.37%
22. O=C(c1cc(-n2cccn2)ccn1)N(CC1CCC1)CC(F)(F)F  -3.45%
23. COc1ncnc(N)c1CNCC(C)Oc1ccccc1Cl (stereo unspecified)  -3.69%
24. Cc1nc(CN2Cc3nccn3CC(CN3CCCC3)C2)cs1 (stereo unspecified)  -3.82%
25. O=C(NCC1(CO)CC1)c1nnn(-c2ccc(F)cc2)c1C1CC1  -4.26%
26. CCc1nnc2n1CCN(C(=O)CN(C)Cc1ccccc1)C2  -4.4%
27. Cc1cnn(CCNCC(=O)Nc2ccc(Br)cn2)c1  -4.64%
28. CNC(=O)[C@@H](C1CCCCC1)N1CCC[C@H]1C(=O)N(C)CCN(C)C  -4.67%
29. CNC(=O)[C@@H]1CN(C(=O)COC)C[C@H]1c1ccnc(N2CCCC2)n1  -5.21%
30. CCCC1(CO)CCCN(Cc2ncccn2)C1 (stereo unspecified)  -5.25%
31. CCOc1ccccc1C(C(=O)O)N(C)Cc1cc(C)[nH]n1 (stereo unspecified)  -5.35%
32. CN(C)Cc1nc2c(o1)CN(C(=O)NCc1cccc(F)c1)C2  -5.42%
33. Clc1ccccc1C1(c2ccnc(-c3ccncc3)n2)CCNCC1  -5.92%
34. Cc1cc(S(=O)(=O)N2C[C@H](C3CC3)[C@@H](N)C2)c(C)s1  -6.03%
35. CC(C)OCc1ncn2c1CN(Cc1nccs1)CCC2  -6.03%
36. O=C(O)c1ccccc1-c1ccc(CN2CCC(CO)C2)cc1 (stereo unspecified)  -6.69%
37. Nc1cc2c(nn1)CCN(C(=O)c1csc(-c3cccs3)n1)C2  -6.75%
38. CCN(CC)C(=O)Nc1cc2c(cc1SC)OCCO2  -6.83%
39. CCc1nnc2n1CCN(C(=O)c1cc3ccccc3[nH]1)C2  -7.28%
40. CCS(=O)(=O)N1Cc2ccccc2CC1C(=O)OCc1c(C)noc1C (stereo unspecified)  -7.84%
41. CC(C)(C)c1nc(CNC2CCN(S(C)(=O)=O)CC2)cs1  -8.36%
42. Cc1cc(C)c2[nH]c(=O)c(CN3CCCC4(C3)CN(C)C(=O)O4)cc2c1 (stereo unspecified)  -8.68%
43. CSc1ncccc1C(=O)N(C)CCc1scnc1C  -8.88%
44. O=C(NCc1cnc2n1CCN(c1ncc(F)cn1)CC2)C1CCC1  -9.1%
45. Cc1cc(=O)n2c(n1)SCC2CC(=O)NCc1cc(-c2ccco2)on1 (stereo unspecified)  -9.17%
46. CCCN(CCC)c1ncc(S(=O)(=O)c2ccc(OC)cc2)c(N)n1  -9.23%
47. O=C(CC1CCc2ccccc21)NCCSc1cnn[nH]1 (stereo unspecified)  -9.43%
48. O=C(c1ccc(-c2ccccc2)[nH]c1=O)N1CCCn2ncnc21  -9.78%
49. CN(Cc1c(Cl)ccc2cccnc12)CC(C)(CO)CO  -10.4%
50. CN(C)S(=O)(=O)N1CCOC(c2cccc(-c3cncnc3)n2)C1 (stereo unspecified)  -10.8%
51. O=C(CCc1ccsc1)N1CCCC(n2cncn2)C1 (stereo unspecified)  -11.8%
52. CCc1nc(CN2CCN(C(=O)C3CCCCC3)CC2)cs1  -12.3%
53. Cc1ccc(Cl)cc1-n1nnnc1C1(N2CCCC2)CCCCC1  -12.7%
54. CC(C)(C)c1cc(C(=O)NCCN2CCCS2(=O)=O)[nH]n1  -14.3%
55. Cc1ccc(C)n1-c1c(C(=O)NCC(C)Cn2cccn2)cnn1C (stereo unspecified)  -21.4%
56. CN1CCC(c2nnc(CN3CCOCC3)n2C)CC1  -24.5%

From ChEMBL document CHEMBL3507680, “University of Dundee, Gates Library screen for HepG2 cell viability”
